# Results published in PMC6941952, “A homogeneous bioluminescent immunoassay to probe cellular signaling pathway regulation” (Communications Biology, 2020).
# Test system: phospho-IκBα (Ser32)
# Experiment: NanoBiT cell-based immunoassay, phosphorylated IκBα in MCF-7 cells
# Parameters: species or system human
# Settings: for Raw data / Subtract reagent background: TNF
# Experimental: Prior to NanoBiT Cell-Based Immunoassay, 50,000 cells were seeded in 160 µl of complete growth media per well of a 96-well plate and incubated overnight. The cells were checked under microscope and it was determined that 50,000 cells per well in 96-well plate is under 90% confluency for all cells tested. If necessary, the cell culture media were replaced with serum-free media after the cells were stably adherent on the plate and incubated overnight. To treat cells with activators or inhibitors, medium was changed to 30 µl of medium containing inhibitors. If activation of a specific pathway is needed, the cells were stimulated with 10 µl of medium containing activators. To lyse the cells, 10 µl of lysis buffer containing 0.1% digitonin diluted in 1X immunoassay buffer with protease and phosphatase inhibitors was added and the plates were mixed vigorously for 20 min. Then, 50 µl of an antibody mix containing two primary antibodies against the target protein and NanoBiT detecting antibodies (0.3 µl each per well), diluted in 1X immunoassay buffer was added to the lysates. The plates were incubated at 23 °C for 90 min, followed by the addition of 25 µl of Nano-Glo® reagent consisting of Nano-Glo® Luciferase Assay Substrate mixed with 1X immunoassay buffer. Luminescence was measured using a plate-reading luminometer.
# In all, 50,000 MCF-7 cells were seeded in 160 µl complete growth medium per well of a 96-well plate and incubated overnight. Half of the cells were treated with 50 ng per ml TNFα and half with vehicle. Cells were lysed as described above and a mixture of NanoBiT secondary antibodies with primary antibodies at the matrix concentrations described in Fig. 2a were added. After 90 min incubation, the Nano-Glo® reagent was added to the reactions as described above and luminescence was measured using a plate-reading luminometer.
# Single dose or dose response inhibitor treatments were performed prior to activation of the pathways as follows. For IκBα, the cells were treated in 30 µl medium with IKK16 or MG132 for 60 min before the addition of 10 µl of DMEM containing appropriate concentration of TNFα. To measure phosphorylation of AKT or STAT3, the corresponding NanoBiT immunoassays were developed with MCF-7 or A431 cells, respectively, according the same scheme used to develop the IκBα assay using the primary antibodies for AKT and STAT3 described in the reagents section. For the AKT assay, MCF-7 cells were incubated overnight in phenol-red free DMEM medium (Gibco #21063-029) without serum. Treatment with LY294002 was performed in 30 µl medium and cells were incubated for 60 min before the addition of 1 µM Insulin. To measure STAT3 phosphorylation, A431 cells were incubated overnight in DMEM medium without serum. […] After addition of the stimulators, the cells were incubated for additional times as follows. IκBα phosphorylation and degradation analyses required both time courses and single time points as described in figures. […] The NanoBiT immunoassay protocol was followed as described above.
# All 96-well assay plates were read using a GloMax® 96 Microplate Luminometer from Promega. The instrument was set to 0.5 s integration time. In order to obtain net change of signal, the reagent background values (signal from the well containing all reagent except primary antibodies) were subtracted from the sample values. To plot and analyze the data, Microsoft Excel and GraphPad Prism® Software were used. IC50 values were determined by using a nonlinear regression fit to a sigmoidal dose response (variable slope).
# [1] = plate #3, IkB Ab #3 75 ng/ml, P-IkB Ab #2 75 ng/ml
# [2] = plate #3, IkB Ab #3 75 ng/ml, P-IkB Ab #2 150 ng/ml
# [3] = plate #3, IkB Ab #3 75 ng/ml, P-IkB Ab #2 300 ng/ml
# [4] = plate #3, IkB Ab #3 75 ng/ml, P-IkB Ab #2 600 ng/ml
# [5] = plate #3, IkB Ab #3 75 ng/ml, P-IkB Ab #2 1200 ng/ml
# [6] = plate #3, IkB Ab #3 150 ng/ml, P-IkB Ab #2 75 ng/ml
# [7] = plate #3, IkB Ab #3 150 ng/ml, P-IkB Ab #2 150 ng/ml
# [8] = plate #3, IkB Ab #3 150 ng/ml, P-IkB Ab #2 300 ng/ml
# [9] = plate #3, IkB Ab #3 150 ng/ml, P-IkB Ab #2 600 ng/ml
# [10] = plate #3, IkB Ab #3 150 ng/ml, P-IkB Ab #2 1200 ng/ml
# [11] = plate #3, IkB Ab #3 300 ng/ml, P-IkB Ab #2 75 ng/ml
# [12] = plate #3, IkB Ab #3 300 ng/ml, P-IkB Ab #2 150 ng/ml
# [13] = plate #3, IkB Ab #3 300 ng/ml, P-IkB Ab #2 300 ng/ml
# [14] = plate #3, IkB Ab #3 300 ng/ml, P-IkB Ab #2 600 ng/ml
# [15] = plate #3, IkB Ab #3 300 ng/ml, P-IkB Ab #2 1200 ng/ml
# [16] = plate #3, IkB Ab #3 600 ng/ml, P-IkB Ab #2 75 ng/ml
# [17] = plate #3, IkB Ab #3 600 ng/ml, P-IkB Ab #2 150 ng/ml
# [18] = plate #3, IkB Ab #3 600 ng/ml, P-IkB Ab #2 300 ng/ml
# [19] = plate #3, IkB Ab #3 600 ng/ml, P-IkB Ab #2 600 ng/ml
# [20] = plate #3, IkB Ab #3 600 ng/ml, P-IkB Ab #2 1200 ng/ml
# [21] = plate #3, IkB Ab #3 1200 ng/ml, P-IkB Ab #2 75 ng/ml
# [22] = plate #3, IkB Ab #3 1200 ng/ml, P-IkB Ab #2 150 ng/ml
# [23] = plate #3, IkB Ab #3 1200 ng/ml, P-IkB Ab #2 300 ng/ml
# [24] = plate #3, IkB Ab #3 1200 ng/ml, P-IkB Ab #2 600 ng/ml
# [25] = plate #3, IkB Ab #3 1200 ng/ml, P-IkB Ab #2 1200 ng/ml
substance,measurement,setting,value
TNFα,Fold change (TNF-treated /Non-treated),"plate #2, IkB Ab #2 (Mouse) 600 ng/ml, P-IkB Ab #1 (Rabbit) 1200 ng/ml, listed as TNF",0.8
same,Fold change (TNF-treated /Non-treated),"plate #2, IkB Ab #2 (Mouse) 1200 ng/ml, P-IkB Ab #1 (Rabbit) 75 ng/ml",1.511
same,Fold change (TNF-treated /Non-treated),"plate #2, IkB Ab #2 (Mouse) 1200 ng/ml, P-IkB Ab #1 (Rabbit) 75 ng/ml, listed as TNF",1.5
same,Fold change (TNF-treated /Non-treated),"plate #2, IkB Ab #2 (Mouse) 1200 ng/ml, P-IkB Ab #1 (Rabbit) 150 ng/ml",2.468
same,Fold change (TNF-treated /Non-treated),"plate #2, IkB Ab #2 (Mouse) 1200 ng/ml, P-IkB Ab #1 (Rabbit) 150 ng/ml, listed as TNF",2.5
same,Fold change (TNF-treated /Non-treated),"plate #2, IkB Ab #2 (Mouse) 1200 ng/ml, P-IkB Ab #1 (Rabbit) 300 ng/ml",2.168
same,Fold change (TNF-treated /Non-treated),"plate #2, IkB Ab #2 (Mouse) 1200 ng/ml, P-IkB Ab #1 (Rabbit) 300 ng/ml, listed as TNF",2.2
same,Fold change (TNF-treated /Non-treated),"plate #2, IkB Ab #2 (Mouse) 1200 ng/ml, P-IkB Ab #1 (Rabbit) 600 ng/ml",2.1086
same,Fold change (TNF-treated /Non-treated),"plate #2, IkB Ab #2 (Mouse) 1200 ng/ml, P-IkB Ab #1 (Rabbit) 600 ng/ml, listed as TNF",2.1
same,Fold change (TNF-treated /Non-treated),"plate #2, IkB Ab #2 (Mouse) 1200 ng/ml, P-IkB Ab #1 (Rabbit) 1200 ng/ml",1.784
same,Fold change (TNF-treated /Non-treated),"plate #2, IkB Ab #2 (Mouse) 1200 ng/ml, P-IkB Ab #1 (Rabbit) 1200 ng/ml, listed as TNF",1.8
same,Raw data,[1],20510
same,Subtract reagent background,[1],5320
same,Raw data,[2],20430
same,Subtract reagent background,[2],5240
same,Raw data,[3],19120
same,Subtract reagent background,[3],3930
same,Raw data,[4],17590
same,Subtract reagent background,[4],2400
same,Raw data,[5],16090
same,Subtract reagent background,[5],900
same,Raw data,[6],27550
same,Subtract reagent background,[6],12360
same,Raw data,[7],26450
same,Subtract reagent background,[7],11260
same,Raw data,[8],24490
same,Subtract reagent background,[8],9300
same,Raw data,[9],21590
same,Subtract reagent background,[9],6400
same,Raw data,[10],19970
same,Subtract reagent background,[10],4780
same,Raw data,[11],26220
same,Subtract reagent background,[11],11030
same,Raw data,[12],24040
same,Subtract reagent background,[12],8850
same,Raw data,[13],23970
same,Subtract reagent background,[13],8780
same,Raw data,[14],20830
same,Subtract reagent background,[14],5640
same,Raw data,[15],19500
same,Subtract reagent background,[15],4310
same,Raw data,[16],24590
same,Subtract reagent background,[16],9400
same,Raw data,[17],22810
same,Subtract reagent background,[17],7620
same,Raw data,[18],23190
same,Subtract reagent background,[18],8000
same,Raw data,[19],21540
same,Subtract reagent background,[19],6350
same,Raw data,[20],20460
same,Subtract reagent background,[20],5270
same,Raw data,[21],23630
same,Subtract reagent background,[21],8440
same,Raw data,[22],23620
same,Subtract reagent background,[22],8430
same,Raw data,[23],22930
same,Subtract reagent background,[23],7740
same,Raw data,[24],22240
same,Subtract reagent background,[24],7050
same,Raw data,[25],21740
same,Subtract reagent background,[25],6550
same,Fold change (TNF-treated /Non-treated),"plate #3, IkB Ab #3 (Rabbit) 150 ng/ml, P-IkB Ab #2 (Mouse) 75 ng/ml",3.572
same,Fold change (TNF-treated /Non-treated),"plate #3, IkB Ab #3 (Rabbit) 150 ng/ml, P-IkB Ab #2 (Mouse) 150 ng/ml",2.066
same,Fold change (TNF-treated /Non-treated),"plate #3, IkB Ab #3 (Rabbit) 150 ng/ml, P-IkB Ab #2 (Mouse) 300 ng/ml",1.553
same,Fold change (TNF-treated /Non-treated),"plate #3, IkB Ab #3 (Rabbit) 150 ng/ml, P-IkB Ab #2 (Mouse) 600 ng/ml",1.339
same,Fold change (TNF-treated /Non-treated),"plate #3, IkB Ab #3 (Rabbit) 150 ng/ml, P-IkB Ab #2 (Mouse) 1200 ng/ml",0.8968
same,Fold change (TNF-treated /Non-treated),"plate #3, IkB Ab #3 (Rabbit) 300 ng/ml, P-IkB Ab #2 (Mouse) 75 ng/ml",2.895
same,Fold change (TNF-treated /Non-treated),"plate #3, IkB Ab #3 (Rabbit) 300 ng/ml, P-IkB Ab #2 (Mouse) 150 ng/ml",1.664
same,Fold change (TNF-treated /Non-treated),"plate #3, IkB Ab #3 (Rabbit) 300 ng/ml, P-IkB Ab #2 (Mouse) 300 ng/ml",1.602
same,Fold change (TNF-treated /Non-treated),"plate #3, IkB Ab #3 (Rabbit) 300 ng/ml, P-IkB Ab #2 (Mouse) 600 ng/ml",1.153
same,Fold change (TNF-treated /Non-treated),"plate #3, IkB Ab #3 (Rabbit) 300 ng/ml, P-IkB Ab #2 (Mouse) 1200 ng/ml",0.9289
same,Fold change (TNF-treated /Non-treated),"plate #3, IkB Ab #3 (Rabbit) 600 ng/ml, P-IkB Ab #2 (Mouse) 75 ng/ml",2.035
same,Fold change (TNF-treated /Non-treated),"plate #3, IkB Ab #3 (Rabbit) 600 ng/ml, P-IkB Ab #2 (Mouse) 150 ng/ml",1.414
same,Fold change (TNF-treated /Non-treated),"plate #3, IkB Ab #3 (Rabbit) 600 ng/ml, P-IkB Ab #2 (Mouse) 300 ng/ml",1.541
same,Fold change (TNF-treated /Non-treated),"plate #3, IkB Ab #3 (Rabbit) 600 ng/ml, P-IkB Ab #2 (Mouse) 600 ng/ml",1.301
same,Fold change (TNF-treated /Non-treated),"plate #3, IkB Ab #3 (Rabbit) 600 ng/ml, P-IkB Ab #2 (Mouse) 1200 ng/ml",1.1557
same,Fold change (TNF-treated /Non-treated),"plate #3, IkB Ab #3 (Rabbit) 1200 ng/ml, P-IkB Ab #2 (Mouse) 75 ng/ml",1.581
same,Fold change (TNF-treated /Non-treated),"plate #3, IkB Ab #3 (Rabbit) 1200 ng/ml, P-IkB Ab #2 (Mouse) 150 ng/ml",1.544
same,Fold change (TNF-treated /Non-treated),"plate #3, IkB Ab #3 (Rabbit) 1200 ng/ml, P-IkB Ab #2 (Mouse) 300 ng/ml",1.173
same,Fold change (TNF-treated /Non-treated),"plate #3, IkB Ab #3 (Rabbit) 1200 ng/ml, P-IkB Ab #2 (Mouse) 600 ng/ml",1.469
same,Fold change (TNF-treated /Non-treated),"plate #3, IkB Ab #3 (Rabbit) 1200 ng/ml, P-IkB Ab #2 (Mouse) 1200 ng/ml",1.2818
